Source: patent publication US8362000B2, “Azetidinyl diamides as monoacylglycerol lipase inhibitors” (Janssen Pharmaceutica NV, priority 2009, dated 2013)
Numbering of substitutions follows the chain as printed. Like-named read-outs stand apart in the source and are kept apart here.

Assays:
mutant MGL = biological target: T1, mutant MGL (Homo sapiens, UniProt Q99685, L169S/L176S); experiment: MGL ThermoFluor assay - mutant; assay type: binding
T1 sequence (Q99685 1-303 L169S/L176S): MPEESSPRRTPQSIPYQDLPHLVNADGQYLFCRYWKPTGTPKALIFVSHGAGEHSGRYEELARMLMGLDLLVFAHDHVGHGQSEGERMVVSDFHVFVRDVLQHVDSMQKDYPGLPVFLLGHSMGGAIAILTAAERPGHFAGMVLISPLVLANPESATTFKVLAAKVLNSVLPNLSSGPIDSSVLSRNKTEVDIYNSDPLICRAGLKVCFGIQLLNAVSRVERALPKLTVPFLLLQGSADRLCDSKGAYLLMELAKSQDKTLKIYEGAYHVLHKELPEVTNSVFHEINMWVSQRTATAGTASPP

[1] = biological target: T2, purified wild type MGL (wt-MGLL 6H-11-313) (Homo sapiens, UniProt Q99685)
T2 sequence (Q99685 1-303): T1 sequence (Q99685 1-303 L169S/L176S) with S169L, S176L

MGL = biological target: T3, MGL (Rattus norvegicus, UniProt Q8R431); experiment: 2-AG accumulation assay in rat brain homogenate; assay type: biochemical; details: rat brain homogenate, 2-AG accumulation as percent of vehicle; for 2-AG accumulation, % of vehicle control at 1 µM: compound 1 μM, read-out: Rat Brain 2AG % VehCntrl (%) @ 1 μM; for 2-AG accumulation, % of vehicle control at 10 µM: compound 10 μM, read-out: Rat Brain 2AG % VehCntrl (%) @ 10 μM
T3 construct: one g rat brain was homogenized using a Polytron homogenizer; from tissue; host or cells: rat brain homogenate
T3 sequence (Q8R431 1-303): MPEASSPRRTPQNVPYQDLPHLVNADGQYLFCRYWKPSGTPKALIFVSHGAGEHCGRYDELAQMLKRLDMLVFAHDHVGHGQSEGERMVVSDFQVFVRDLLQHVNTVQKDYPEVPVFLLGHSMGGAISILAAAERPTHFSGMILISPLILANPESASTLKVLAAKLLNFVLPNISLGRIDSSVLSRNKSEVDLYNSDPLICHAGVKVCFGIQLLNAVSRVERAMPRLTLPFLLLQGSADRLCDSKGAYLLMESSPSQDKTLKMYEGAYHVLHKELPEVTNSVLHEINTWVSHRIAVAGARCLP

[2] = ThermoFluor concentration-response, read-out: MGL mutant ThermoFluor Kd
[3] = ThermoFluor thermal stability binding assay, read-out: MGL mutant ThermoFluor Kd
[4] = compound concentration measured by qNMR, read-out: MGL mutant ThermoFluor qKd (using qNMR conc.)
[5] = ThermoFluor, compound concentration measured by qNMR, read-out: MGL mutant ThermoFluor qKd (μM) (using qNMR conc.)

SMILES	Kd (mutant MGL; [2]) [µM]	IC50 [1] [nM]	2-AG accumulation, % of vehicle control at 1 µM (MGL) [%]	further results
O=C(c1cscn1)N1CC(N2CCN(C(=O)c3cc4cc(C(F)(F)F)ccc4s3)CC2)C1 [Cpd 716, 1-[1-(1,3-Thiazol-4-ylcarbonyl)azetidin-3-yl]-4-{[5-(trifluoromethyl)-1-benzothiophen-2-yl]carbonyl}piperazine]	0.04	140	326	
O=C(c1ccc2c(c1)CCN(C(=O)c1ccc[nH]1)C2)N1CC(N2CCN(C(=O)c3nccs3)CC2)C1 [Cpd 690]		46	367	Kd (mutant MGL; [3]): 0.104 µM
Cn1cc(Cc2ccc(F)cc2)c2ccc(C(=O)N3CC(N4CCN(C(=O)c5ccc[nH]5)CC4)C3)cc21 [Cpd 1028]		16	647	Kd (mutant MGL; [4]): 0.011 µM
O=C(c1ccc2c(cnn2-c2ccccc2)c1)N1CC(N2CCN(C(=O)c3cscn3)CC2)C1 [Cpd 1163, 1-Phenyl-5-({3-[4-(1,3-thiazol-4-ylcarbonyl)piperazin-1-yl]azetidin-1-yl}carbonyl)-1H-indazole]	0.073	48	244	
O=C(c1nn(-c2ccc(Cl)cc2Cl)c2c1CSC/C2=C\c1ccc(F)cc1)N1CC(N2CCN(C(=O)C(F)(F)F)CC2)C1 [Cpd 1022]	0.228	67	189	Kd (mutant MGL; [4]): 1.06 µM
Cc1c(C(=O)N2CC(N3CCN(C(=O)c4nccs4)CC3)C2)n(C)c2ccc(Cl)cc12 [Cpd 696]		59	444	Kd (mutant MGL; ThermoFluor, compound concentration measured by qNMR, read-out: MGL mutant ThermoFluor qKd (using qNMR conc.)): 0.063 µM
O=C(c1nccs1)N1CCN(C2CN(C(=O)c3sc4cc(F)ccc4c3C3CCC3)C2)CC1 [Cpd 695]	0.001	57	497	
O=C(c1ccc(-c2nc(-c3ccccc3)c(-c3ccccc3)[nH]2)cc1)N1CC(N2CCN(C(=O)c3nccs3)CC2)C1 [Cpd 1179]	0.005	73	996	
O=C(c1cscn1)N1CCN(C2CN(C(=O)c3sc4cc(-c5ccccc5)ccc4c3C(F)(F)F)C2)CC1 [Cpd 1098, 1-(1-{[6-Phenyl-3-(trifluoromethyl)-1-benzothiophen-2-yl]carbonyl}azetidin-3-yl)-4-(1,3-thiazol-4-ylcarbonyl)piperazine]	0.031	12	296	
O=C(c1cscn1)N1CCN(C2CN(C(=O)c3cccc4nc(-c5cccc(F)c5)oc34)C2)CC1 [Cpd 1254]		765	187	Kd (mutant MGL; [3]): 0.1 µM
O=C(c1cc[nH]c1)N1CC(N2CCN(C(=O)c3cc4cc(C(F)(F)F)ccc4s3)CC2)C1 [Cpd 741, 1-[1-(1H-Pyrrol-3-ylcarbonyl)azetidin-3-yl]-4-{[5-(trifluoromethyl)-1-benzothiophen-2-yl]carbonyl}piperazine]	0.2	298	182	
O=C(c1cc(-c2ccc(F)cc2)cs1)N1CC(N2CCN(C(=O)c3nccs3)CC2)C1 [Cpd 1157]		41	252	Kd (mutant MGL; [5]): 0.179 µM
O=C(c1cscn1)N1CCN(C2CN(C(=O)c3sc4cc(Cl)ccc4c3C(F)(F)F)C2)CC1 [Cpd 699]	0.041	69	253	
Cc1c(C(=O)N2CC(N3CCN(C(=O)c4nccs4)CC3)C2)[nH]c2ccc(-c3ccc(F)cc3)cc12 [Cpd 1075, 5-(4-Fluorophenyl)-3-methyl-2-({3-[4-(1,3-thiazol-2-ylcarbonyl)piperazin-1-yl]azetidin-1-yl}carbonyl)-1H-indole]		8	833	Kd (mutant MGL; [5]): 0.01 µM
Cc1cc(-c2ccccc2)ccc1C(=O)N1CC(N2CCN(C(=O)c3nccs3)CC2)C1 [Cpd 1074, 1-{1-[(3-Methylbiphenyl-4-yl)carbonyl]azetidin-3-yl}-4-(1,3-thiazol-2-ylcarbonyl)piperazine]	0.011	8	303	
O=C(c1csc(-c2cc(Cl)cc(Cl)c2)n1)N1CC(N2CCN(C(=O)c3nccs3)CC2)C1 [Cpd 158, 1-(1-{[2-(3,5-Dichlorophenyl)-1,3-thiazol-4-yl]carbonyl}azetidin-3-yl)-4-(1,3-thiazol-2-ylcarbonyl)piperazine]	0.476	657	126	2-AG accumulation, % of vehicle control at 10 µM (MGL): 213%
Cc1c(C(=O)N2CC(N3CCN(C(=O)c4ccccc4)CC3)C2)sc2cc(C(F)(F)F)ccc12 [Cpd 505]	0.01	39	236	
O=C(c1ccc(F)cc1)c1c[nH]c2cc(C(=O)N3CC(N4CCN(C(=O)c5nccs5)CC4)C3)ccc12 [Cpd 1025]		19	851	Kd (mutant MGL; [4]): 0.066 µM
Cc1nc(-c2ccc(F)cc2)sc1C(=O)N1CC(N2CCN(C(=O)c3nccs3)CC2)C1 [Cpd 1150]	0.013	36	459	2-AG accumulation, % of vehicle control at 0.1 µM (MGL; compound 0.1 μM, read-out: Rat Brain 2AG % VehCntrl (%) @ 0.1 μM): 139%; 2-AG accumulation, % of vehicle control at 10 µM (MGL): 715%

Second part, led by results:

Kd (mutant MGL; [2]) [µM]	IC50 [1] [nM]	2-AG accumulation, % of vehicle control at 1 µM (MGL) [%]	SMILES	further results
0.005	< 5	626	CCCCCc1ccc(C(=O)N2CC(N3CCN(C(=O)c4nccs4)CC3)C2)cc1 [Cpd 893]	
	8	667	O=C(c1ccc2nc(-c3ccc(F)c(F)c3)oc2c1)N1CC(N2CCN(C(=O)c3nccs3)CC2)C1 [Cpd 1077]	Kd (mutant MGL; [5]): 0.02 µM
	< 5	767	O=C(c1ccc2c(c1)CCN(c1ccccc1)C2)N1CC(N2CCN(C(=O)c3nccs3)CC2)C1 [Cpd 883]	Kd (mutant MGL; [3]): 0.059 µM
	< 5	548	Cc1cc(C(=O)N2CC(N3CCN(C(=O)c4nccs4)CC3)C2)sc1-c1ccc(C(F)(F)F)cc1 [Cpd 1352]	Kd (mutant MGL; [5]): 0.008 µM
	6	671	Cn1ccc2cc(C(=O)N3CC(N4CCN(C(=O)c5nccs5)CC4)C3)cc(-c3cccc(C(F)(F)F)c3)c21 [Cpd 1060]	Kd (mutant MGL; [5]): 0.032 µM
0.002	< 5	683	O=C(c1ccc(C2CCCCC2)cc1)N1CC(N2CCN(C(=O)c3nccs3)CC2)C1 [Cpd 889]	
0.007	6	590	Cc1c(C(=O)N2CC(N3CCN(C(=O)c4cscn4)CC3)C2)sc2ccc(-c3ccccc3)cc12 [Cpd 1058, 1-{1-[(3-Methyl-5-phenyl-1-benzothiophen-2-yl)carbonyl]azetidin-3-yl}-4-(1,3-thiazol-4-ylcarbonyl)piperazine]	
0.025	7	258	O=C(c1ccc(S(=O)(=O)c2cccc(C(F)(F)F)c2)cc1)N1CC(N2CCN(C(=O)c3nccs3)CC2)C1 [Cpd 651]	
0.00941	< 5	436	O=C(c1ccc(Oc2cccc(C(F)(F)F)c2)cc1)N1CC(N2CCN(C(=O)c3nccs3)CC2)C1 [Cpd 424, 1-(1,3-Thiazol-2-ylcarbonyl)-4-[1-({4-[3-(trifluoromethyl)phenoxy]phenyl}carbonyl)azetidin-3-yl]piperazine]	
0.004	< 5	944	O=C(c1ccc(-c2nc(-c3ccccc3)cs2)cc1)N1CC(N2CCN(C(=O)c3nccs3)CC2)C1 [Cpd 1326]	
	< 5	585	O=C(c1nccs1)N1CCN(C2CN(C(=O)c3sc4c(C(F)(F)F)c(F)ccc4c3Cl)C2)CC1 [Cpd 902, 1-(1-{[3-chloro-6-fluoro-7-(trifluoromethyl)-1-benzothiophen-2-yl]carbonyl}azetidin-3-yl)-4-(1,3-thiazol-2-ylcarbonyl)piperazine]	Kd (mutant MGL; [5]): 0.004 µM
